In PubChem BioAssay (NCI) one finds TGI and GI50 data, which are given here for 16 molecules.

Among the test systems are ACHN renal; HOP-62 NSCLC; NCI-H226 lung; PC-3 prostate; SK-OV-3 ovarian; SN12C renal; UO-31 renal; MOLT-4 leukemia.
Holding throughout (experiment): NCI anticancer screen, dose series, 48 h

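96-well plates; 48 h exposure; 5 concentrations. Endpoints by linear interpolation between flanking doses. Not reached: highest tested concentration assigned. Here, GI50 denotes the concentration required for 50% inhibition of growth. TGI marks complete inhibition of growth.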

With `N#Cc1ccccc1NC(=O)C(=O)c1c(O)c2ccccc2oc1=O`, the TGI in the test with ACHN renal, in the test with HOP-62 NSCLC, in the test on NCI-H226 lung, with PC-3 prostate, with SK-OV-3 ovarian and in the test with SN12C renal was over 100 µM each time. Moreover, in the test with UO-31 renal, the TGI is over 100 µM.

Regarding `C[C@H](Nc1ncnc2nc[nH]c12)c1cc2ccc(F)cc2nc1-c1ccccn1`, the GI50 was 47.9 µM in the test with ACHN renal; over 57.8 µM in the test on HOP-62 NSCLC; 52.2 µM in the test on MOLT-4 leukemia; over 89.4 µM in the test with NCI-H226 lung; 25 µM in the test on PC-3 prostate; 48.3 µM in the test with SK-OV-3 ovarian. The values for the GI50 in the test on SN12C renal and with UO-31 renal were 57.8 µM and 9.3 µM, respectively. Further, the TGI in the test on ACHN renal, in the test on HOP-62 NSCLC, in the test on MOLT-4 leukemia, in the test with NCI-H226 lung, in the test with PC-3 prostate and in the test with SK-OV-3 ovarian was over 100 µM throughout. In addition, the TGI in the test with SN12C renal and with UO-31 renal was over 100 µM throughout.

Turning to `Nc1nc2c(s1)CCc1c-2c(Br)n(Cc2ccccc2)c1Br`, the GI50 in the test with ACHN renal is 2.22 µM; in the test with HOP-62 NSCLC, 18 µM; in the test with MOLT-4 leukemia it was 2.33 µM; in the test on PC-3 prostate, 12.8 µM; in the test with SK-OV-3 ovarian it was 23.6 µM; in the test on SN12C renal, 13.5 µM. In addition, the GI50 with UO-31 renal is 1.8 µM. Besides, the TGI in the test on ACHN renal worked out at 5.23 µM; in the test with HOP-62 NSCLC it was 33.6 µM; in the test with MOLT-4 leukemia, 26.7 µM; in the test with PC-3 prostate, 45.5 µM; in the test on SK-OV-3 ovarian, 53.7 µM; in the test on SN12C renal, 31.2 µM. Also, the TGI in the test on UO-31 renal was determined as 4.41 µM.

For `COc1ccc(C(SCC(N)C(=O)O)(c2ccccc2)c2ccccc2)cc1` (stereo not given), the GI50 with ACHN renal is 3.73 µM; with HOP-62 NSCLC it was 0.392 µM; in the test on MOLT-4 leukemia, 0.439 µM; in the test on NCI-H226 lung, 11.8 µM; in the test with PC-3 prostate, 0.185 µM; in the test with SK-OV-3 ovarian, 0.19 µM. The GI50 with SN12C renal was 0.199 µM; in the test with UO-31 renal, 13.6 µM. For the same molecule, the TGI with ACHN renal was over 100 µM; with HOP-62 NSCLC, over 84.5 µM; with MOLT-4 leukemia, over 100 µM; in the test on NCI-H226 lung, over 71.2 µM; in the test with PC-3 prostate it was over 100 µM; in the test on SK-OV-3 ovarian, over 100 µM. The TGI is over 68.4 µM with SN12C renal and over 100 µM in the test on UO-31 renal.

Turning to `O=C(CN(/C=C/C(=O)C(F)(F)F)c1ccc(Cl)cc1)c1ccccc1`, the GI50 in the test with ACHN renal is 13.7 µM; with HOP-62 NSCLC it was 11.4 µM; in the test with MOLT-4 leukemia, 39.7 µM; with PC-3 prostate, 17 µM; in the test on SK-OV-3 ovarian, 51.2 µM; in the test on SN12C renal, 16 µM. Also, the GI50 in the test on UO-31 renal was 13.5 µM. Besides, the TGI is 28.9 µM with ACHN renal; 24.5 µM in the test on HOP-62 NSCLC; over 100 µM with MOLT-4 leukemia; 35.3 µM in the test on PC-3 prostate; over 100 µM in the test with SK-OV-3 ovarian; 34.2 µM with SN12C renal. This molecule also returned a TGI in the test with UO-31 renal of 29.9 µM.

Take `O=C1c2ccccc2S(=O)(=O)N1CSC(=S)N1CCCCC1`: the GI50 was over 100 µM in the test on ACHN renal; over 100 µM with HOP-62 NSCLC; over 100 µM in the test on NCI-H226 lung; over 100 µM in the test on SK-OV-3 ovarian; over 46.5 µM in the test with SN12C renal; over 100 µM with UO-31 renal. Further, the TGI with ACHN renal, with HOP-62 NSCLC, with NCI-H226 lung, in the test on SK-OV-3 ovarian, with SN12C renal and with UO-31 renal was over 100 µM each time.

For the molecule `COc1cc2nc(SCC(=O)Nc3cc(OC)c(OC)c(OC)c3)n(Cc3ccccc3)c(=O)c2cc1OC`, the GI50 with ACHN renal is 4.63 µM; with HOP-62 NSCLC, 2.03 µM; in the test with MOLT-4 leukemia, over 100 µM; with PC-3 prostate, 3.2 µM; in the test with SK-OV-3 ovarian it was 2.91 µM; in the test with SN12C renal, 4.7 µM. The GI50 in the test with UO-31 renal is 1.95 µM. The TGI in the test on ACHN renal was over 100 µM; in the test with HOP-62 NSCLC, 4.28 µM; in the test on MOLT-4 leukemia, over 100 µM; with PC-3 prostate, over 100 µM; in the test on SK-OV-3 ovarian it was 7.26 µM; in the test on SN12C renal, over 100 µM. In the test on UO-31 renal, this molecule gave a TGI of 8.85 µM.

Turning to `COc1ccc2c(CN3CCC(C(=O)O)CC3)cc3cc4c(cc3c2c1)OCO4`, the GI50 with ACHN renal was 1.41 µM; in the test on HOP-62 NSCLC, 2.71 µM; with MOLT-4 leukemia it was 3.05 µM; with NCI-H226 lung it was 2.03 µM; in the test on PC-3 prostate, 2.26 µM; in the test with SN12C renal, 1.27 µM. In addition, the TGI was 5.45 µM with ACHN renal; 11.4 µM in the test with HOP-62 NSCLC; 9.73 µM in the test on MOLT-4 leukemia; 4.64 µM with NCI-H226 lung; 6.05 µM with PC-3 prostate; 4.08 µM in the test on SN12C renal.

`C=C(C)[C@@H]1CC[C@]2(C(=O)O)CC[C@]3(C)[C@H](CC[C@@H]4[C@@]5(C)C[C@@H](CC#Cc6ccc(C(F)(F)F)cc6)[C@H](O)C(C)(C)[C@@H]5CC[C@]43C)[C@@H]12`: the GI50 in the test with ACHN renal is 4.04 µM; in the test with MOLT-4 leukemia, 2.75 µM; in the test on NCI-H226 lung, 2.91 µM; with UO-31 renal, 6.52 µM. Moreover, the TGI in the test with ACHN renal, in the test with MOLT-4 leukemia, in the test with NCI-H226 lung and in the test with UO-31 renal was over 100 µM in each case.

As to `Cl.Fc1c[c-]c(-c2ccccn2)c(F)c1.[Pt].c1ccc(P(c2ccccc2)C([PH+](c2ccccc2)c2ccccc2)[PH+](c2ccccc2)c2ccccc2)cc1`, the GI50 was 3.05 µM with ACHN renal; 2.63 µM in the test on HOP-62 NSCLC; 2.54 µM in the test with MOLT-4 leukemia; 2.78 µM in the test with NCI-H226 lung; 2.17 µM in the test on PC-3 prostate; 2.91 µM with SN12C renal. The GI50 in the test with UO-31 renal was 2.27 µM. Further, the TGI with ACHN renal is over 100 µM; in the test on HOP-62 NSCLC it was 9.78 µM; in the test on MOLT-4 leukemia, over 100 µM; with NCI-H226 lung it was 32.8 µM; in the test with PC-3 prostate, over 100 µM; in the test with SN12C renal, 15.4 µM. In the test on UO-31 renal, this molecule came in with a TGI of 7.65 µM.

Turning to `CN(Cc1cc(Br)cc(Br)c1O)Cc1cc(Br)cc(Br)c1O`, the GI50 in the test on ACHN renal was 1.63 µM; with HOP-62 NSCLC it was 1.74 µM; in the test on MOLT-4 leukemia it was 3.31 µM; in the test on NCI-H226 lung, 4.75 µM; with PC-3 prostate, 4.37 µM; in the test on SN12C renal, 2.5 µM. The GI50 with UO-31 renal is 1.08 µM. Besides, the TGI was 18.9 µM in the test on ACHN renal; 18.1 µM in the test with HOP-62 NSCLC; 36.3 µM in the test with MOLT-4 leukemia; 19.8 µM in the test on NCI-H226 lung; 25 µM in the test with PC-3 prostate; 16.7 µM with SN12C renal. For the same molecule, the TGI in the test with UO-31 renal stood at 14.6 µM.

Consider `CC1COc2c(N3CCN(C)CC3)c(F)cc3c(=O)c(C(=O)O)cn1c23` (stereo not given), for which the GI50 with ACHN renal was over 100 µM; in the test on HOP-62 NSCLC, over 100 µM; with NCI-H226 lung, 93.1 µM; in the test on PC-3 prostate it was over 100 µM; with SK-OV-3 ovarian, over 100 µM; with SN12C renal, over 100 µM. In addition, the GI50 in the test on UO-31 renal was 47.5 µM. Also, the TGI in the test on ACHN renal, in the test with HOP-62 NSCLC, with NCI-H226 lung, in the test with PC-3 prostate, with SK-OV-3 ovarian and in the test on SN12C renal was over 100 µM in each case. For the same molecule, in the test on UO-31 renal, the TGI is over 100 µM.

As for `CN(C)c1ccc(N=C2C=CC(=[N+](C)C)C=C2)cc1`, the GI50 in the test on ACHN renal is 12.2 µM; in the test on HOP-62 NSCLC it was 4.21 µM; with NCI-H226 lung, 17 µM; with PC-3 prostate, 4.89 µM; in the test with SK-OV-3 ovarian, 15.5 µM; in the test with SN12C renal it was 13.7 µM. In the test with UO-31 renal, the GI50 is 11.3 µM. Besides, the TGI with ACHN renal is 37.5 µM; in the test on HOP-62 NSCLC it was over 100 µM; in the test on NCI-H226 lung, over 100 µM; with PC-3 prostate it was 22.7 µM; in the test with SK-OV-3 ovarian it was 78.6 µM; with SN12C renal, over 100 µM. Moreover, in the test on UO-31 renal, the TGI was 47.6 µM.

Regarding `COC(=O)C(=O)C(C(=O)C(=O)Nc1nc2ccc(C)cc2s1)c1nc2ccc([N+](=O)[O-])cc2[nH]c1=O` (stereo not given), the TGI with ACHN renal, with HOP-62 NSCLC, in the test with NCI-H226 lung, with PC-3 prostate, in the test with SK-OV-3 ovarian and in the test with SN12C renal was over 100 µM each time. Besides, in the test on UO-31 renal, the TGI is over 100 µM.

Regarding `COc1ccc(C(=O)c2cc(OC)c(OC)c(OC)c2)cc1/C=C/C(=O)c1ccc(OC)c(OC)c1`, the GI50 in the test with ACHN renal was 1.32 µM; in the test on HOP-62 NSCLC it was 34.1 µM; with MOLT-4 leukemia it was 0.669 µM; with PC-3 prostate it was 5.9 µM; in the test with SK-OV-3 ovarian, 5.76 µM; with SN12C renal, 1.65 µM. The TGI was over 100 µM in the test with ACHN renal; over 100 µM in the test on HOP-62 NSCLC; 17.4 µM in the test on MOLT-4 leukemia; over 100 µM in the test with PC-3 prostate; over 100 µM in the test with SK-OV-3 ovarian; over 100 µM with SN12C renal.

Consider `N/N=C(\C(=O)Nc1ccc(Cl)cc1Cl)C(c1cnc2ccccc2n1)[N+](=O)[O-]` (stereo not given), for which the TGI in the test on ACHN renal, with HOP-62 NSCLC, in the test with NCI-H226 lung, with PC-3 prostate, with SK-OV-3 ovarian and in the test on SN12C renal was over 100 µM in each case. The same molecule returned a TGI with UO-31 renal of over 100 µM.
